Test results reported in patent publication US20230348426A1, “OXOPYRROLIDINE FPR2 AGONISTS” (Bristol-Myers Squibb Company, priority 2020, published 2023).
pEC50: −log10 of the molar value.

How the values were obtained:
human FPR1 = human FPR1 (Homo sapiens (Human), UniProt P21462); assay: FPR1 cyclic adenosine monophosphate (cAMP) assay; format: cell-based; conditions: CHO cells overexpressing human FPR1; forskolin 10 µM; inhibition of cAMP production; read-out: hFPR1 cAMP EC50
Procedure, shortened: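 CHO cells overexpressing human FPR1 (4,000 cells/well) stimulated with 10 µM forskolin plus 200 µM IBMX in the presence of compound (0.020 nM–100 µM, 1% DMSO), 30 min at room temperature. Intracellular cAMP measured by HTRF. Inhibition of cAMP production fitted to a 4-parameter logistic equation.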

human FPR2 = human FPR2 (Homo sapiens (Human), UniProt P25090); assay: FPR2 cyclic adenosine monophosphate (cAMP) assay; format: cell-based; conditions: CHO cells overexpressing human FPR2; forskolin 5 µM; inhibition of cAMP production; read-out: hFPR2 cAMP2 EC50
human FPR2, sequence (P25090 whole entry): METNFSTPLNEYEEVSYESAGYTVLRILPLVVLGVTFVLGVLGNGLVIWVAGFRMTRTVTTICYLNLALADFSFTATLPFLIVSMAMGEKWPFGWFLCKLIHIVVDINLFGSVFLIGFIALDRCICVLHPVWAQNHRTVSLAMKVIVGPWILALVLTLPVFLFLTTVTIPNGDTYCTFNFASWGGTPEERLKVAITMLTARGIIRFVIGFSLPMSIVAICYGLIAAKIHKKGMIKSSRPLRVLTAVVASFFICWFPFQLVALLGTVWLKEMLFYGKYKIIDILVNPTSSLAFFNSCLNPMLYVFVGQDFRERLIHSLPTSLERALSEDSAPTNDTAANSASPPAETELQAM
Procedure, shortened: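 CHO cells overexpressing human FPR2 (2,000/well) incubated 30 min at room temperature with compound (0.020 nM–100 µM, 1% DMSO), 5 µM forskolin and 200 µM IBMX.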

human FPR1, sequence (P21462 whole entry): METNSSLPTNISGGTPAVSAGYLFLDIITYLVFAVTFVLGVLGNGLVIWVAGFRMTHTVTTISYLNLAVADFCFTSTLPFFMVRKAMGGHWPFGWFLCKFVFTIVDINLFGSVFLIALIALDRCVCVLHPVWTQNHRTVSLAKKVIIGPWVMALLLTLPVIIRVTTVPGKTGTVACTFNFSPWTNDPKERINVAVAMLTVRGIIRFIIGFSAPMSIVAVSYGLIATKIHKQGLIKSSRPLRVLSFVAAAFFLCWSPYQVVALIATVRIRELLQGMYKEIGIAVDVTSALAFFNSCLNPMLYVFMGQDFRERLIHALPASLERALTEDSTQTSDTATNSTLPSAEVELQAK

COc1cc(F)c([C@@H]2CN(c3nc(NC4CCOC4)ccc3F)C(=O)[C@H]2NC(=O)c2ccc(OC(F)F)cc2)c(F)c1 (stereo partly shown) [Example 271]
pEC50 (human FPR1): 5.85
pEC50 (human FPR2): 8.11

COc1ccc([C@@H]2CN(c3c(C)ccn(CC4CC4)c3=O)C(=O)[C@H]2NC(=O)c2ccc(OC(F)F)cc2)cc1 [Example 459]
pEC50 (human FPR1): 9.70
pEC50 (human FPR2): 9.05

COCCn1ccnc1N1C[C@@H](c2c(F)cc(OC)cc2F)[C@H](NC(=O)c2ccc(OC(F)F)cc2)C1=O [Example 651]
pEC50 (human FPR1): 6.11
pEC50 (human FPR2): 8.46

CCn1cccc(N2C[C@@H](c3ccc(OC)cc3F)[C@H](NC(=O)c3ccc(OC(F)F)cc3)C2=O)c1=O [Example 83]
pEC50 (human FPR1): 8.12
pEC50 (human FPR2): 8.66

COc1cc(F)c([C@@H]2CN(c3c(C)ccn(CC#N)c3=O)C(=O)[C@H]2NC(=O)c2ccc(OC(F)(F)F)cc2)c(F)c1 [Example 595]
pEC50 (human FPR1): 7.89
pEC50 (human FPR2): 8.62

COc1cc(F)c([C@@H]2CN(c3cccn(CCF)c3=O)C(=O)[C@H]2NC(=O)c2ccc(OC(F)(F)F)cc2)c(F)c1 [Example 221]
pEC50 (human FPR1): 7.30
pEC50 (human FPR2): 8.22

COc1cc(F)c([C@@H]2CN(c3c(C)ccn(CC(C)O)c3=O)C(=O)[C@H]2NC(=O)c2ccc(Cl)cc2)c(F)c1 (stereo partly shown) [Example 581]
pEC50 (human FPR1): 8.00
pEC50 (human FPR2): 8.89

COc1ccc([C@@H]2CN(c3c(C)ccn(CCO)c3=O)C(=O)[C@H]2NC(=O)c2ccc(Cl)cc2)c(F)c1 [Example 394]
pEC50 (human FPR1): 7.96
pEC50 (human FPR2): 8.72

COCCn1cc(F)cc(N2C[C@@H](c3c(F)cc(OC)cc3F)[C@H](NC(=O)c3ccc(OC(F)F)cc3)C2=O)c1=O [Example 268]
pEC50 (human FPR1): 6.85
pEC50 (human FPR2): 8.11

COCC(CO)n1ccc(C)c(N2C[C@@H](c3ccc(OC)cc3)[C@H](NC(=O)c3ccc(OC(F)(F)F)cc3)C2=O)c1=O (stereo partly shown) [Example 564]
pEC50 (human FPR1): 9.30
pEC50 (human FPR2): 8.44

CNc1ccnc(N2C[C@@H](c3c(F)cc(OC)cc3F)[C@H](NC(=O)c3ccc(OC(F)F)cc3)C2=O)c1C(F)(F)F [Example 261]
pEC50 (human FPR1): 6.03
pEC50 (human FPR2): 8.12

COc1ccc([C@@H]2CN(c3c(C)ccn(C(F)F)c3=O)C(=O)[C@H]2NC(=O)c2ccc(OC(F)(F)F)cc2)cc1 [Example 383]
pEC50 (human FPR1): 8.70
pEC50 (human FPR2): 8.26

COc1ccc([C@@H]2CN(c3c(C)ccn(CCC(F)(F)F)c3=O)C(=O)[C@H]2NC(=O)c2ccc(Cl)cc2)cc1 [Example 386]
pEC50 (human FPR1): 9.00
pEC50 (human FPR2): 8.62

COc1ccc([C@@H]2CN(c3cccn(CC(C)OC)c3=O)C(=O)[C@H]2NC(=O)c2ccc(OC(F)(F)F)cc2)c(F)c1 (stereo partly shown) [Example 395]
pEC50 (human FPR1): 9.00
pEC50 (human FPR2): 8.62

COc1ccc([C@@H]2CN(c3cccn(CC(OC)C(F)(F)F)c3=O)C(=O)[C@H]2NC(=O)c2ccc(OC(F)F)cc2)cc1 (stereo partly shown) [Example 416]
pEC50 (human FPR1): 9.00
pEC50 (human FPR2): 8.77

COCCn1ccc(C)c(N2C[C@@H](c3c(F)cc(OC)cc3F)[C@H](NC(=O)c3ccc(OC(F)(F)F)cc3)C2=O)c1=O [Example 185]
pEC50 (human FPR1): 9.15
pEC50 (human FPR2): 8.32

COc1cc(F)c([C@@H]2CN(c3ncccc3C#N)C(=O)[C@H]2NC(=O)c2ccc(OC(F)(F)F)cc2)c(F)c1 [Example 15]
pEC50 (human FPR1): 5.96
pEC50 (human FPR2): 7.66

COCCn1ccc(C)c(N2C[C@@H](c3ccc(OC)cc3)[C@H](NC(=O)c3ccc(OC(F)(F)F)cc3)C2=O)c1=O [Example 178]
pEC50 (human FPR1): 10.00
pEC50 (human FPR2): 8.33

COc1cc(F)c([C@@H]2CN(c3c(C)ccn(CC(OC)C(F)(F)F)c3=O)C(=O)[C@H]2NC(=O)c2ccc(OC(F)F)cc2)c(F)c1 (stereo partly shown) [Example 314]
pEC50 (human FPR1): 9.40
pEC50 (human FPR2): 8.00

COc1cc(F)c([C@@H]2CN(c3cn(C)nc3OC)C(=O)[C@H]2NC(=O)c2ccc(OC(F)(F)F)cc2)c(F)c1 [Example 631]
pEC50 (human FPR1): 6.80
pEC50 (human FPR2): 8.00

COc1cc(F)c([C@@H]2CN(c3c(F)cccc3C#N)C(=O)[C@H]2NC(=O)c2ccc(Cl)cc2)c(F)c1 [Example 341]
pEC50 (human FPR1): 5.39
pEC50 (human FPR2): 7.64

O=C(N[C@@H]1C(=O)N(c2cccn(CCC(F)(F)F)c2=O)C[C@H]1c1ccc(Cl)cc1)c1ccc(OC(F)(F)F)cc1 [Example 73]
pEC50 (human FPR1): 8.49
pEC50 (human FPR2): 8.72

COc1cc(F)c([C@@H]2CN(c3nccc(OC4CCOC4)c3C(F)(F)F)C(=O)[C@H]2NC(=O)c2ccc(Cl)cc2)c(F)c1 (stereo partly shown) [Example 708]
pEC50 (human FPR1): < 6.00
pEC50 (human FPR2): 7.96

COc1cc(F)c([C@@H]2CN(c3c(C)ccn(CC(C)O)c3=O)C(=O)[C@H]2NC(=O)c2ccc(OC(F)(F)F)cc2)c(F)c1 (stereo partly shown) [Example 361]
pEC50 (human FPR1): 8.52
pEC50 (human FPR2): 8.77

COc1cc(F)c([C@@H]2CN(c3cccc(C4CCCN(CCO)C4)n3)C(=O)[C@H]2NC(=O)c2ccc(OC(F)F)cc2)c(F)c1 (stereo partly shown) [Example 502]
pEC50 (human FPR1): 6.05
pEC50 (human FPR2): 8.11

COc1ccc([C@@H]2CN(c3cccn(CC(O)C(F)(F)F)c3=O)C(=O)[C@H]2NC(=O)c2ccc(OC(F)F)cc2)cc1 (stereo partly shown) [Example 643]
pEC50 (human FPR1): 7.12
pEC50 (human FPR2): 8.59

COc1cc(F)c([C@@H]2CN(c3cccn(C4CCOC4)c3=O)C(=O)[C@H]2NC(=O)c2ccc(OC(F)F)cc2)c(F)c1 (stereo partly shown) [Example 201]
pEC50 (human FPR1): 7.74
pEC50 (human FPR2): 8.28

COc1ccc([C@@H]2CN(c3c(C)ccn(CCO)c3=O)C(=O)[C@H]2NC(=O)c2ccc(OC(F)(F)F)cc2)c(F)c1 [Example 375]
pEC50 (human FPR1): 8.52
pEC50 (human FPR2): 8.80

COc1cc(F)c([C@@H]2CN(c3cccc(OC(F)F)c3)C(=O)[C@H]2NC(=O)c2ccc(OC(F)(F)F)cc2)c(F)c1 [Example 184]
pEC50 (human FPR1): 8.01
pEC50 (human FPR2): 8.32

COc1cc(F)c([C@@H]2CN(c3cc(C(F)(F)F)cn(C)c3=O)C(=O)[C@H]2NC(=O)c2ccc(Cl)cc2)c(F)c1 [Example 238]
pEC50 (human FPR1): 5.82
pEC50 (human FPR2): 8.18

COc1ccc([C@@H]2CN(c3ccnn(CC(F)F)c3=O)C(=O)[C@H]2NC(=O)c2ccc(OC(F)(F)F)cc2)c(F)c1 [Example 696]
pEC50 (human FPR1): 8.08
pEC50 (human FPR2): 8.14

COc1cc(F)c([C@@H]2CN(c3ccnn(CC(O)C(F)(F)F)c3=O)C(=O)[C@H]2NC(=O)c2ccc(OC(F)(F)F)cc2)c(F)c1 (stereo partly shown) [Example 466]
pEC50 (human FPR1): 8.40
pEC50 (human FPR2): 8.52

COc1cc(F)c([C@@H]2CN(c3nc(N4CCC4=O)ccc3F)C(=O)[C@H]2NC(=O)c2ccc(OC(F)F)cc2)c(F)c1 [Example 46]
pEC50 (human FPR1): 8.70
pEC50 (human FPR2): 9.00

COCCn1cccc(N2C[C@@H](c3ccc(Cl)cc3)[C@H](NC(=O)c3ccc(OC(F)F)cc3)C2=O)c1=O [Example 162]
pEC50 (human FPR1): 8.03
pEC50 (human FPR2): 8.39

COc1cc(F)c([C@@H]2CN(c3cn(C)nc3OC)C(=O)[C@H]2NC(=O)c2ccc(OC(F)F)cc2)c(F)c1 [Example 630]
pEC50 (human FPR1): 5.96
pEC50 (human FPR2): 8.28

COc1cc(N2C[C@@H]3C[C@H]2CN3C)nc(N2C(=O)[C@@H](NC(=O)c3ccc(Cl)cc3)[C@H](c3c(F)cc(OC)cc3F)[C@@H]2C)c1 [Example 70]
pEC50 (human FPR1): < 5.00
pEC50 (human FPR2): 8.72

COc1cc(F)c([C@@H]2CN(c3c(C)ccn(CCS(C)(=O)=O)c3=O)C(=O)[C@H]2NC(=O)c2ccc(OC(F)(F)F)cc2)c(F)c1 [Example 576]
pEC50 (human FPR1): 8.82
pEC50 (human FPR2): 8.85

COc1cc(F)c([C@@H]2CN(c3cn(C)nc3OC)C(=O)[C@H]2NC(=O)c2ccc(Cl)cc2)c(F)c1 [Example 629]
pEC50 (human FPR1): 6.17
pEC50 (human FPR2): 8.00
